Measured values: patent US20250304571A1, “BIOLOGICALLY ACTIVE COMPOUNDS AND METHODS THEREOF” (Suzhou Keen Therapeutics Co., Ltd., priority 2022, published 2025)

system: KP4 (pancreatic ductal adenocarcinoma) cells; experiment: Cell viability (CellTiter Glo) assay, inhibition of KP4 cell proliferation; assay type: cell-based; conditions: Homo sapiens, KP-4, 72 h, read-out: IC50, inhibition of KP4 cell proliferation

Row | Compound | IC50 [nM]
1 | Nc1nc(CO/C(=N\C2CCCCC2)NC2CCCCC2)nc(Nc2ccc(Oc3ccccc3)cc2)n1 [Compound F23] | 500 to 5000
2 | N=C(N)OCc1nc(N)nc(Nc2ccc(Oc3ccccc3)cc2)n1 [Compound F26] | > 5000
3 | CN(C)C(=N)OCc1nc(N)cc(Nc2ccc(Oc3ccccc3)cc2)n1 [Compound F36] | 500 to 5000

same assay, conditions: Homo sapiens, KP-4; KP4 cells, 72 hours, CellTiter Glo; read-out: IC50, inhibition of KP4 cell proliferation

Row | IC50 [nM] | Compound
4 | 100 to 500 | CCCC[C@H]1Cc2cc(OC)ccc2[C@H](c2ccc(F)cc2)N1C(=O)COC(=N)N(C)C [Compound A1]
5 | > 5000 | CCCC[C@H]1Cc2cc(OC)ccc2[C@H](c2ccc(F)cc2)N1C(=O)COC(=N)N1CCN(C)C(=O)C1 [Compound A2]
6 | 100 to 500 | CN(C)C(=N)OCc1ncc2ccn(-c3ccc(Oc4ccccc4)cc3)c2n1 [Compound D1]
7 | 500 to 5000 | N=C(OCc1nc(Nc2ccc(Oc3ccccc3)cc2)c2cc[nH]c2n1)N1CCOCC1 [Compound D4]
8 | 100 to 500 | N=C(OCc1nc(Nc2ccc(Oc3ccccc3)cc2)c2cc[nH]c2n1)N1CCCCC1 [Compound D5]
9 | 500 to 5000 | CN1CCN(C(=N)OCc2nc(Nc3ccc(Oc4ccccc4)cc3)c3cc[nH]c3n2)CC1=O [Compound D7]
10 | 500 to 5000 | N=C(OCc1nc(Nc2ccc(Oc3ccccc3)cc2)c2cc[nH]c2n1)N1CCCC(F)(F)C1 [Compound D8]
11 | 500 to 5000 | CN(C)C(=N)OCc1nc(Nc2ccc(Oc3ccccc3)cc2)c2cn[nH]c2n1 [Compound D10]
12 | 500 to 5000 | CC(C)Oc1ccc(Nc2nc(N)nc(COC(=N)N(C)C)n2)cc1 [Compound F1]
13 | < 100 | N=C(OCc1nc(N)nc(Nc2ccc(Oc3ccccc3)cc2)n1)N1CCCCC1 [Compound F4, (4-amino-6-((4-phenoxyphenyl)amino)-1,3,5-triazin-2-yl)methyl piperidine-1-carbimidate]
14 | 100 to 500 | CN(C)C(=N)OCc1nc(N)nc(Nc2ccc3ccccc3c2)n1 [Compound F5]
15 | 100 to 500 | CN1CCN(C(=N)OCc2nc(N)nc(Nc3ccc(Oc4ccccc4)cc3)n2)CC1 [Compound F7]
16 | 500 to 5000 | CC(C)/N=C(/NC(C)C)OCc1nc(N)nc(Nc2ccc(Oc3ccccc3)cc2)n1 [Compound F24]
17 | 100 to 500 | N=C(OCc1nc(N)nc(Nc2ccc(Oc3ccccc3)cc2)n1)N1CCS(=O)(=O)CC1 [Compound F27]
18 | < 100 | C[C@@H]1CN(C(=N)OCc2nc(N)nc(Nc3ccc(Oc4ccccc4)cc3)n2)C[C@H](C)N1C(=O)OC(C)(C)C [Compound F32]
19 | 100 to 500 | CN1CCN(C(=N)OCc2nc(N)nc(Nc3ccc(Oc4ccccc4)cc3)n2)CC1=O [Compound F33]
20 | 100 to 500 | CN(C)C(=N)OCc1nccc(Nc2ccc(Oc3ccccc3)cc2)n1 [Compound F35]
21 | > 5000 | CN(C)C(=N)OCc1nccc(N2CCCCC2c2ccc(Oc3ccccc3)cc2)n1 (stereo not drawn) [Compound F38]

system: 786-O (renal cell carcinoma) cells; experiment: Cell viability (CellTiter Glo) assay, inhibition of 786-O cell proliferation; assay type: cell-based; conditions: Homo sapiens, 786-0, 72 h, read-out: IC50, inhibition of 786-O cell proliferation

Row | Compound | IC50 [nM]
22 | CN(C)C(=N)OCc1nc(N)c2c(n1)N(c1ccc(Oc3ccccc3)cc1)CC2(C)C [Compound E1] | < 100
23 | CC(C)Nc1nc(COC(=N)N2CCC[C@@H]2C(F)(F)F)nc2c1C1(CCCC1)C(=O)N2c1cnc(N2CCCCC2)nc1 [Compound E211] | < 100
24 | CC(C)Nc1nc(COC(=N)N2CCC[C@@H]2C(F)(F)F)nc2c1C1(CCCC1)C(=O)N2c1ccc(F)c(F)c1 [Compound E212] | < 100
25 | CC(C)N(CC(F)(F)F)C(=N)OCc1nc(N)nc(Nc2ccc(Oc3ccccc3)cc2)n1 [Compound F8] | < 100
26 | N=C(OCc1nc(N)nc(Nc2ccc(Oc3ccccc3)cc2)n1)N(C1CCCCC1)C1CC1 [Compound F14] | < 100
27 | Nc1nc(CO/C(=N\C2CCCCC2)NC2CCCCC2)nc(Nc2ccc(Oc3ccccc3)cc2)n1 [Compound F23] | 100 to 500
28 | CN(C(=N)OCc1nc(N)nc(Nc2ccc(Oc3ccccc3)cc2)n1)c1ccccc1 [Compound F29] | < 100
29 | N=C(OCc1nc(N)nc(Nc2ccc(Oc3ccccc3)cc2)n1)N1CCCCO1 [Compound F43] | 100 to 500

same assay, conditions: Homo sapiens, 786-0; 786-O cells, 72 hours, CellTiter Glo; read-out: IC50, inhibition of 786-O cell proliferation

Row | IC50 [nM] | Compound
30 | 500 to 5000 | CCCC[C@H]1Cc2cc(OC)ccc2[C@H](c2ccc(F)cc2)N1C(=O)COC(=N)N1CCN(C)C(=O)C1 [Compound A2]
31 | 100 to 500 | N=C(OCc1nc(Nc2ccc(Oc3ccccc3)cc2)c2cc[nH]c2n1)N1CCOCC1 [Compound D4]
32 | 100 to 500 | N=C(OCc1nc(Nc2ccc(Oc3ccccc3)cc2)c2cc[nH]c2n1)N1CCCCC1 [Compound D5]
33 | 500 to 5000 | CN1CCN(C(=N)OCc2nc(Nc3ccc(Oc4ccccc4)cc3)c3cc[nH]c3n2)CC1=O [Compound D7]
34 | 100 to 500 | N=C(OCc1nc(Nc2ccc(Oc3ccccc3)cc2)c2cc[nH]c2n1)N1CCCC(F)(F)C1 [Compound D8]
35 | < 100 | COc1cc(F)ccc1N1CC(C)(C)c2c(NCC(F)(F)F)nc(COC(=N)N3CCC[C@@H]3C(F)(F)F)nc21 [Compound E208]
36 | < 100 | N=C(OCc1nc(N)c2c(n1)N(c1ccc(F)c(F)c1)C(=O)C21CCCC1)N1CCC[C@@H]1C(F)(F)F [Compound E209]
37 | 100 to 500 | CS(=O)(=O)c1ccc(N2C(=O)C3(CCCC3)c3c(N)nc(COC(=N)N4CCC[C@@H]4C(F)(F)F)nc32)cc1 [Compound E213]
38 | < 100 | C[C@@H]1CN(c2ccc(N3C(=O)C4(CCCC4)c4c(N)nc(COC(=N)N5CCC[C@@H]5C(F)(F)F)nc43)cc2F)C[C@H](C)O1 [Compound E214]
39 | 100 to 500 | CNc1nc(COC(=N)N2CCC[C@@H]2C(F)(F)F)nc2c1C1(CCCC1)C(=O)N2c1cnc(C2CC2)nc1 [Compound E215]
40 | 100 to 500 | CNc1nc(COC(=N)N2CCOCC2C(F)(F)F)nc2c1C(C)(C)C(=O)N2c1cnc(N2CCC(F)(F)C2)nc1 (stereo not drawn) [Compound E216]
41 | < 100 | CNc1nc(COC(=N)N2CCC[C@@H]2C(F)(F)F)nc2c1C(C)(C)C(=O)N2c1cnc(N2C[C@@H](C)O[C@@H](C)C2)nc1 [Compound E217]
42 | 500 to 5000 | CNc1nc(COC(=N)N2CCOCC2C(F)(F)F)nc2c1C(C)(C)C(=O)N2c1cnc(N2C[C@@H](C)O[C@@H](C)C2)nc1 (stereo partly drawn) [Compound E218]
43 | 100 to 500 | C[C@@H]1CN(c2ncc(N3C(=O)C(C)(C)c4c(NC5CCC5)nc(COC(=N)N5CCOCC5C(F)(F)F)nc43)cn2)C[C@H](C)O1 (stereo partly drawn) [Compound E219]
44 | 100 to 500 | CC1(C)C(=O)N(c2cnc(N3CCC(F)(F)C3)nc2)c2nc(COC(=N)N3CCOCC3C(F)(F)F)nc(NC3CCC3)c21 (stereo not drawn) [Compound E220]
45 | > 5000 | Cn1c(OCc2nc(N)nc(Nc3ccc(Oc4ccccc4)cc3)n2)nc(Br)c1Br [Compound F2]
46 | 100 to 500 | CN(C)C(=N)OCc1nc(N)nc(Nc2ccc3ccccc3c2)n1 [Compound F5]
47 | 100 to 500 | CN1CCN(C(=N)OCc2nc(N)nc(Nc3ccc(Oc4ccccc4)cc3)n2)CC1 [Compound F7]
48 | < 100 | [2H]C([2H])(OC(=N)N1CCC(F)(F)CC1)c1nc(N)nc(Nc2ccc(Oc3ccccc3)cc2)n1 [Compound F10]
49 | 100 to 500 | CC1(NC(=N)OCc2nc(N)nc(Nc3ccc(Oc4ccccc4)cc3)n2)CCCCC1 [Compound F15]

Row | IC50 [nM] | Compound
50 | 100 to 500 | CCN(CC)C(=N)OCc1nc(N)nc(Nc2ccc(Oc3ccccc3)cc2)n1 [Compound F17]
51 | 100 to 500 | CC(C)/N=C(/NC(C)C)OCc1nc(N)nc(Nc2ccc(Oc3ccccc3)cc2)n1 [Compound F24]
52 | 100 to 500 | CC1(NC(=N)OCc2nc(N)nc(Nc3ccc(Oc4ccccc4)cc3)n2)CC1 [Compound F28]
53 | 500 to 5000 | CN(C)C(=N)OCc1nccc(Nc2ccc(Oc3ccccc3)cc2)n1 [Compound F35]
54 | 500 to 5000 | CCN(CC(F)(F)F)C(=N)OCc1cc(Nc2ccc(Oc3ccccc3)cc2)ncn1 [Compound F39]
55 | 100 to 500 | CCN(CC(F)(F)F)C(=N)OCc1nccc(Nc2ccc(Oc3ccccc3)cc2)n1 [Compound F40]
56 | < 100 | CCN(C(=N)OCc1nc(N)nc(Nc2ccc(Oc3ccccc3)cc2)n1)c1ccncc1 [Compound F41]
57 | < 100 | CCN(C(=N)OCc1nc(N)nc(Nc2ccc(Oc3ccccc3)cc2)n1)c1ccccn1 [Compound F42]
58 | 100 to 500 | N=C(OCc1nc(N)nc(Nc2ccc(Oc3ccccc3)cc2)n1)N1CCCO1 [Compound F44]
59 | < 100 | CCN(CC(F)(F)F)C(=N)OCc1nc(N)nc(Nc2ccc(Oc3ccccc3)cc2)n1 [Compound F45]
60 | < 100 | C#CCOc1cccc(Oc2ccc(Nc3nc(N)nc(COC(=N)N4CCCCC4C(F)(F)F)n3)cc2)c1 (stereo not drawn) [Compound F46]
61 | < 100 | C#CCOc1cccc(Oc2ccc(Nc3nc(N)nc(COC(=N)N(CC)c4ccccn4)n3)cc2)c1 [Compound F47]
62 | 500 to 5000 | CCN(CC(F)(F)F)C(=N)OCc1cc(Nc2ccc(Oc3ccccc3)cc2)cnn1 [Compound F48]
63 | 500 to 5000 | CCN(CC(F)(F)F)C(=N)OCc1nccc(Nc2ccc(N3CCOCC3)nc2)n1 [Compound F49]
64 | 500 to 5000 | CCN(CC(F)(F)F)C(=N)OCc1ncc(C#N)c(Nc2ccc(Oc3ccccc3)cc2)n1 [Compound F50]
65 | < 100 | N=C(OCc1nc(N)nc(Nc2ccc(Oc3ccccc3)cc2)n1)N(CC(F)(F)F)C1CCOCC1 [Compound F51]
66 | > 5000 | Nc1nc(COc2nc(=O)[nH]c(=O)[nH]2)nc(Nc2ccc(Oc3ccccc3)cc2)n1 [Compound F53]
67 | 500 to 5000 | CCN(CC(F)(F)F)C(=N)OCc1ncc(C#N)c(Nc2ccc(Oc3ccccc3)cc2)c1F [Compound F54]
68 | 100 to 500 | N=C(OCc1nc(N)nc(Nc2ccc(N3CCOCC3)cc2)n1)N1CCC[C@@H]1C(F)(F)F [Compound F55, (4-amino-6-((4-morpholinophenyl)amino)-1,3,5-triazin-2-yl) methyl(R)-2-(trifluoromethyl) pyrrolidine-1-carbimidate]

system: 786-O cells; experiment: Anti-proliferation activity in 786-O cells in the presence of a ferroptosis inhibitor (Ferrostatin-1 or Liproxstatin-1); assay type: cell-based; conditions: Homo sapiens, 786-0, 72 h, no ferroptosis inhibitor, read-out: IC50, No Ferroptosis Inhibitor (Table 5)
Procedure: In one assessment, cells (KP4, 786-0 and HT-1080) were seeded (700 cells/well, 1000 cells/well or 3000 cells/well) in 384-well or 96-well plates and incubated at 37° C./5% CO2 for 22-24 hours. A series of 8 different concentrations of compound stocks were created by 5-fold serial dilution in DMSO. These compounds were further diluted in culture media and were then added to cells (final concentrations: 100 μM, 20 μM, 4 μM, 0.8 μM, 0.16 μM, […].). After 72 hours of incubation, 30 μL of CellTiter Glo reagent (Promega) was added to each well and luminescence was measured after 10 minutes using SpectraMax M5/M5e (Molecular Devices). Luminescence from cells treated with DMSO alone was set as background and % of inhibition was calculated as follows: […]
Anti-proliferation activity of various compounds was also tested in the presence of an ferroptosis inhibitor, Ferrostatin-1 (2 μM) or Liproxstatin-1 (2 μM). Certain results are provided in Table 4 and Table 5 as examples. “A” indicates an IC50≤100 nM; “B” indicates an IC50 of >100 nM and ≤500 nM; “C” indicates an IC50>500 nM and ≤5 μM; and “D” indicates an IC50>5 μM.

Row | Compound | IC50 [nM]
69 | CN(C)C(=N)OCc1nc(N)c2c(n1)N(c1ccc(Oc3ccccc3)cc1)CC2(C)C [Compound E1] | < 100
